Earlier results as cited in patent US8466198B2, “Compositions comprising creatine salts and methods of use thereof” (priority 2008, dated 2013).

CN(CC(=O)O)C(=N)N [Creatine]
average gain in athletic performance (creatine ingestion, depending on the measured variable): 10 to 15%

CN(CC(=O)O)C(=N)N.O [creatine monohydrate]
increase in body mass (first week of loading): 1-2 kilograms | improvement of maximal power/strength (short term supplementation): 5-15% | improvement of single effort sprint performance (short term supplementation): 1-5% | improvement of work performed during exercise of maximal effort muscle contractions (short term supplementation): 5-15% | improvement of work performed during repetitive sprint performance (short term supplementation): 5-15%
